Earlier results on 6 molecules are cited in patent publication US7687082B2, “Complementary compositions to reduce blood glucose levels and treat diabetes” (Astrum Therapeutics Pty. Ltd., priority 2005, dated 2010).

Series [1] relates to diabetes mellitus patients.
A further series concerns T2DM subjects. To be noted: 600 mg twice daily, 4 weeks.
Series [2] has as its system humans. The conditions noted are these: compared to baseline.
Series [3] concerns the target T1, adenosine triphosphate (ATP) citrate lyase (Homo sapiens, UniProt P53396).
T1 sequence (P53396 1-1101): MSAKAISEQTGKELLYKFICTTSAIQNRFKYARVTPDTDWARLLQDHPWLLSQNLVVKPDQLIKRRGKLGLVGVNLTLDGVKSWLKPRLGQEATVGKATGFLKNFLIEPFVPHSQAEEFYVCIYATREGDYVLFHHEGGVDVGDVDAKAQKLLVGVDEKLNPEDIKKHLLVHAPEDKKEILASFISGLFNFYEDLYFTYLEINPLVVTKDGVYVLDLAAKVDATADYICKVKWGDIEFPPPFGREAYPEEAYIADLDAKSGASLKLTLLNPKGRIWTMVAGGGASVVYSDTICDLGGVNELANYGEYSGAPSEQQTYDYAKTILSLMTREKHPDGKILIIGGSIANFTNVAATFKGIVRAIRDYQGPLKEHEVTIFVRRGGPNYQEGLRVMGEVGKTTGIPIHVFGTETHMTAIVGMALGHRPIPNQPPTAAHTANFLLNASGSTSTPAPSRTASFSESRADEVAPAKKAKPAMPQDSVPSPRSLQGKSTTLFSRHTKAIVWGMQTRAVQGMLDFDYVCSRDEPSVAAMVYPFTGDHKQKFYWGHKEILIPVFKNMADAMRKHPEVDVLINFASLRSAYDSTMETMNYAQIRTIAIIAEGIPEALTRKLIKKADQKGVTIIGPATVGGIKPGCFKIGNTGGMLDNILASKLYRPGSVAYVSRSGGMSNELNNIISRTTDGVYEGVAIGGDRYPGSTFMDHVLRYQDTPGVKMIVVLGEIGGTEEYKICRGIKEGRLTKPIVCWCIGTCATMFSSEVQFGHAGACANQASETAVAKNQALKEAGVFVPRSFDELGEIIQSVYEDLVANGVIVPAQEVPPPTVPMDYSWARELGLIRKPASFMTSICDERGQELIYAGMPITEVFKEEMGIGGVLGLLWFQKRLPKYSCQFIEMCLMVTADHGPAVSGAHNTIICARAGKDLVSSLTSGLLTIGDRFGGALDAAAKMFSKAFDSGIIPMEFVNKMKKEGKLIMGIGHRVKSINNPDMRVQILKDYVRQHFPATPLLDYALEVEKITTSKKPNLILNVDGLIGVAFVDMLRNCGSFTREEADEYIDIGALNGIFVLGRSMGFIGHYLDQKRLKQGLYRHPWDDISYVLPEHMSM

Series [4] deals with T2DM patients. The conditions noted are these: 200 μg twice daily, three weeks.
Series [5] concerns humans. To be noted: in vivo.
Series [6] concerns timed-pregnant Sprague-Dawley rats. To be noted: rat, in vivo.
The next series has as its system rats. The conditions noted are these: rat, in vivo.
The conditions of series [7]: with food.
The test system of series [8] is T2DM patients. To be noted: 12 weeks, compared to placebo control.

Like-named read-outs stand apart in the source and are kept apart here.

With `O=C(O)CCCCC1CCSS1` (stereo not drawn) [α-LA, α-lipoic acid], in series [1], the “decrease of levels of peroxides” value is 34%. Besides, the entries for the “increases in glucose disposal” value in the series with T2DM subjects (lean T2DM subjects compared to lean controls) and in the series on T2DM subjects (obese T2DM subjects compared to obese controls) were 50% and 42%, respectively.

In the case of `O=C(O)CC(O)(C(=O)O)C(O)C(=O)O` (single isomer, unassigned; (-)) [(−)-HCA, (−)-hydroxycitric acid], in the series on humans [2] (2.8 g), the “decreased body mass index (BMI)” value was −5 to −6%, the decreased body weight is −5 to −6%, the “decreased low density lipoprotein (LDL)” value was −13.2% and the “decreased total cholesterol (TC)” value is reported as −7.2%. For the same molecule, the “increased high density lipoprotein (HDL)” value with humans [2] (2.8 g) is on record as “+7.3%”. Also, in the series with humans [2] (end of study), the “urine level of acetaldehyde” value is “+83.1%”, the “urine level of acetone” value is given as “+35.6%”, the “urine level of formaldehyde” value was “+106.4%” and the “urine level of malondialdehyde” value is recorded as “+88.4%”. Besides, the “inhibition of ATP citrate lyase” value in series [3] is reported as “potent inhibitor”.

In the case of `[Cr]` [chromium], the reduction in triglycerides in the series with T2DM patients [4] (compared to baseline) is −10.5%. Moreover, the reduction in glucose in the series on T2DM patients [4] (compared to baseline, p<0.001) is reported as −21%. In addition, the reduction in cholesterol in the series on T2DM patients [4] (compared to baseline, p<0.02) was −9.4%. Besides, the “glycated hemoglobin (HbA1C)” value with T2DM patients [4] (from 8.2% at baseline, p<0.01) is on record as 7.6%.

For `CCN(CC)CCO` [diethylethanolamine], in the series with humans [5], the individuals developing asthma is listed as 0.6%. Moreover, in [6], the “reduction of body weight” value is 9.5% and the “reduction of weight gain” value is given as 48%. Moreover, in the series with rats, the “findings in respiratory epithelium of the anterior nasal turbinate” value is “inflammatory cell infiltration, focal hyperplasia, and squamous metaplasia”.

In the case of konjac mannan, in series [7], the “decreased LDL” value was −23% and the “decreased TC” value is listed as −12.7%. The “generalized loss of weight” value in [7] (average) was 2.75 kg. Moreover, in series [7] (on average), the “reduced fasting and postprandial levels of glucose” value is listed as −22%.

As to chromium picolinate [CrPic], the insulin level entry in the series on T2DM patients [8] was “significant decrease”. In the series with T2DM patients [8] (p<0.001), the “improvement in fasting glucose” value is on record as 0.44 mM and the “improvement in post-prandial serum glucose” value is listed as 1.97 mM.
